The record followed here is ChEMBL document CHEMBL3046574, “Synthesis and Insecticidal Activity of 2-Alkoxy-4H-l,3,2-benzoxazaphosphorin-2-thiones” (1992).

Type in all cases: functional
Assay [1] deals with Laodelphax striatellus. As to the kind of experiment: Insecticidal activity against Laodelphax striatella (small brown planthopper) assessed as mortality at 500 ppm by root soaking method.
For assay [2], the system named is Spodoptera litura. As to the kind of experiment: Insecticidal activity against Spodoptera litura assessed as mortality at 1000 ppm by leaf dipping method. The conditions noted are these: foliar.
In assay [3] the test system is Laodelphax striatellus. The assay is described as follows: Insecticidal activity against Laodelphax striatella (small brown planthopper) assessed as mortality at 50 ppm by root soaking method.
Assay [4] deals with Spodoptera litura. The assay is described as follows: Insecticidal activity against Spodoptera litura LC50 assessed as mortality by leaf dipping method. The conditions noted are these: foliar.

Values after ≈ are worked out from the molar mass of the structure shown.

With `CCOP1(=S)Oc2ccccc2CN1CC` (stereo not given), the mortality at 500 ppm with Laodelphax striatellus [1] worked out at 97%. In addition, the mortality at 1000 ppm with Spodoptera litura [2] was found to be 93%.

For the compound `CCCN1Cc2ccccc2OP1(=S)OCC` (stereo not given), in the assay with Laodelphax striatellus [1], the mortality at 500 ppm was found to be 40%. In addition, the mortality at 1000 ppm in the assay on Spodoptera litura [2] came to 73%.

Regarding `CCOP1(=S)Oc2ccccc2CN1C(C)C` (stereo not given), in the assay with Laodelphax striatellus [1], the mortality at 500 ppm stood at 43%. For the same compound, the mortality at 1000 ppm in the assay on Spodoptera litura [2] came to 90%.

As for `C=CCN1Cc2ccccc2OP1(=S)OC` (stereo not given), the mortality at 500 ppm in the assay on Laodelphax striatellus [1] worked out at 97%. Moreover, in the assay on Spodoptera litura [2], the mortality at 1000 ppm was determined as 93%.

Consider `C=CCN1Cc2ccccc2OP1(=S)OCC` (stereo not given), for which the mortality at 500 ppm in the assay with Laodelphax striatellus [1] was determined as 50%. Further, the mortality at 1000 ppm with Spodoptera litura [2] was found to be 50%.

`CCOP1(=S)Oc2ccc(Cl)cc2CN1CC` (stereo not given): the mortality at 500 ppm with Laodelphax striatellus [1] came out at 10%. Besides, the mortality at 1000 ppm with Spodoptera litura [2] came to 20%.

Turning to `COP1(=S)Oc2ccc(Cl)cc2CN1C(C)C` (stereo not given), in the assay with Laodelphax striatellus [1], the mortality at 500 ppm worked out at 73%. In addition, the mortality at 1000 ppm with Spodoptera litura [2] was 40%.

For `CCOP1(=S)Oc2ccc(Cl)cc2CN1C(C)C` (stereo not given), the mortality at 500 ppm in the assay on Laodelphax striatellus [1] came out at 87%. Further, the mortality at 1000 ppm in the assay on Spodoptera litura [2] was 33%.

As for `CCCOP1(=S)Oc2ccc(Cl)cc2CN1C(C)C` (stereo not given), the mortality at 500 ppm with Laodelphax striatellus [1] was found to be 0%. Besides, the mortality at 1000 ppm in the assay with Spodoptera litura [2] is 0%.

Take `CCCN1Cc2cc(Cl)ccc2OP1(=S)OCC` (stereo not given): the mortality at 500 ppm in the assay on Laodelphax striatellus [1] turned out to be 0%. Moreover, in the assay on Spodoptera litura [2], the mortality at 1000 ppm worked out at 0%.

Take `C=CCN1Cc2cc(Cl)ccc2OP1(=S)OCC` (stereo not given): the mortality at 500 ppm with Laodelphax striatellus [1] is 0%. Further, the mortality at 1000 ppm with Spodoptera litura [2] is 0%.

For the compound `C=CCN1Cc2cc(Cl)ccc2OP1(=S)OCCC` (stereo not given), the mortality at 500 ppm with Laodelphax striatellus [1] was found to be 0%. In the assay with Spodoptera litura [2], the mortality at 1000 ppm was determined as 13%.

For the compound `CCOP1(=S)Oc2ccc(Cl)cc2CN1CC(C)C` (stereo not given), in the assay with Laodelphax striatellus [1], the mortality at 500 ppm was 0%. The mortality at 1000 ppm in the assay with Spodoptera litura [2] came to 30%.

With `CCCOP1(=S)Oc2ccc(Cl)cc2CN1CC(C)C` (stereo not given), the mortality at 500 ppm in the assay with Laodelphax striatellus [1] amounted to 0%. Further, the mortality at 1000 ppm in the assay on Spodoptera litura [2] came out at 0%.

With `CCOP1(=S)Oc2cc(Cl)c(Cl)cc2CN1CC(C)C` (stereo not given), the mortality at 500 ppm in the assay on Laodelphax striatellus [1] came to 0%. Also, in the assay with Spodoptera litura [2], the mortality at 1000 ppm was 57%.

For `CCCOP1(=S)Oc2cc(Cl)c(Cl)cc2CN1CC(C)C` (stereo not given), the mortality at 500 ppm in the assay on Laodelphax striatellus [1] turned out to be 0%. Moreover, in the assay with Spodoptera litura [2], the mortality at 1000 ppm stood at 17%.

In the case of `CCOP1(=S)Oc2ccc(Br)cc2CN1CC` (stereo not given), the mortality at 500 ppm in the assay with Laodelphax striatellus [1] was 0%. For the same compound, the mortality at 1000 ppm in the assay on Spodoptera litura [2] is 27%.

Take `COP1(=S)Oc2ccc(Br)cc2CN1C(C)C` (stereo not given): the mortality at 50 ppm in the assay on Laodelphax striatellus [3] came to 85%. The mortality at 500 ppm in the assay with Laodelphax striatellus [1] worked out at 100%. Moreover, in the assay with Spodoptera litura [2], the mortality at 1000 ppm was 60%.

Regarding `CCOP1(=S)Oc2ccc(Br)cc2CN1C(C)C` (stereo not given), the mortality at 50 ppm in the assay on Laodelphax striatellus [3] is 87%. Further, the mortality at 500 ppm with Laodelphax striatellus [1] is 100%. Moreover, the mortality at 1000 ppm in the assay on Spodoptera litura [2] was found to be 63%.

With `C=CCN1Cc2cc(Br)ccc2OP1(=S)OC` (stereo not given), the mortality at 500 ppm with Laodelphax striatellus [1] was 0%. Further, the mortality at 1000 ppm in the assay on Spodoptera litura [2] is 18%.

Take `C=CCN1Cc2cc(Br)ccc2OP1(=S)OCC` (stereo not given): the mortality at 500 ppm with Laodelphax striatellus [1] was 0%. The mortality at 1000 ppm in the assay with Spodoptera litura [2] worked out at 20%.

With `C=CCN1Cc2cc(Br)ccc2OP1(=S)OCCC` (stereo not given), the mortality at 500 ppm in the assay on Laodelphax striatellus [1] was 0%. In addition, in the assay with Spodoptera litura [2], the mortality at 1000 ppm was determined as 0%.

As for `COP1(=S)Oc2ccc(Br)cc2CN1CC(C)C` (stereo not given), the mortality at 500 ppm in the assay with Laodelphax striatellus [1] was found to be 0%. In addition, the mortality at 1000 ppm in the assay with Spodoptera litura [2] amounted to 0%.

As to `CCOP1(=S)Oc2ccc(Br)cc2CN1CC(C)C` (stereo not given), the mortality at 500 ppm in the assay on Laodelphax striatellus [1] stood at 0%. The mortality at 1000 ppm with Spodoptera litura [2] worked out at 0%.

In the case of `CCCOP1(=S)Oc2ccc(Br)cc2CN1CC(C)C` (stereo not given), the mortality at 500 ppm in the assay on Laodelphax striatellus [1] was 0%. Moreover, the mortality at 1000 ppm in the assay with Spodoptera litura [2] was found to be 0%.

Regarding `CCOP1(=S)Oc2cc(Br)c(Br)cc2CN1C(C)C` (stereo not given), in the assay with Laodelphax striatellus [1], the mortality at 500 ppm worked out at 0%. Moreover, in the assay with Spodoptera litura [2], the mortality at 1000 ppm is 0%.

As for `CCN1Cc2cc([N+](=O)[O-])ccc2OP1(=S)OC` (stereo not given), in the assay with Laodelphax striatellus [1], the mortality at 500 ppm came to 0%. Moreover, the mortality at 1000 ppm in the assay on Spodoptera litura [2] amounted to 0%.

Consider `CCOP1(=S)Oc2ccc([N+](=O)[O-])cc2CN1CC` (stereo not given), for which, in the assay with Laodelphax striatellus [1], the mortality at 500 ppm came to 0%. Also, the mortality at 1000 ppm with Spodoptera litura [2] was 0%.

Turning to `CCCOP1(=S)Oc2ccc([N+](=O)[O-])cc2CN1CC` (stereo not given), the mortality at 500 ppm in the assay with Laodelphax striatellus [1] was 0%. Further, the mortality at 1000 ppm in the assay on Spodoptera litura [2] was found to be 0%.

For `CCOP1(=S)Oc2ccc([N+](=O)[O-])cc2CN1C(C)C` (stereo not given), in the assay with Laodelphax striatellus [1], the mortality at 500 ppm was found to be 0%. Besides, the mortality at 1000 ppm in the assay with Spodoptera litura [2] was 0%.

For `CCN1Cc2ccccc2OP1(=S)OC` (stereo not given), the mortality at 500 ppm with Laodelphax striatellus [1] turned out to be 83%. The mortality at 1000 ppm in the assay on Spodoptera litura [2] stood at 97%.

Consider `CCOC(=O)CC(SP(=S)(OC)OC)C(=O)OCC` (stereo not given) [MALATHION], for which the mortality at 50 ppm with Laodelphax striatellus [3] was 100%. Besides, the mortality at 500 ppm in the assay with Laodelphax striatellus [1] stood at 100%. For the same compound, the 50% lethal concentration (LC50) in the assay on Spodoptera litura [4] worked out at 8.3 µg/mL (≈ 25.1 µM). Besides, the mortality at 1000 ppm with Spodoptera litura [2] is 100%.

In the case of `CNC(=O)Oc1ccccc1OC(C)C` [PROPOXUR], the mortality at 50 ppm in the assay with Laodelphax striatellus [3] was found to be 16.1%. Besides, the mortality at 500 ppm in the assay with Laodelphax striatellus [1] was found to be 100%.

As usually defined, the mortality is the share of the test organisms that died. Broadly, the LC50 is the concentration lethal to half of the exposed cells or organisms.
